System: Bactrocera oleae
Experiment: Attractiveness in glass Y-tube olfactometer (behavioural response of the olive fruit fly)
Type: in vivo
Conditions: 10 ng on filter paper vs dichloromethane control; individual female flies 8 to 30 days old; Y-tube choice
Description: The attractiveness of the active substances of the attractant composition according to the invention was evaluated using a glass Y-tube olfactometer (internal diameter 4.5 cm; length of the arm 22 cm; length of the main stem 24.5 cm). The assembly was placed in a lit room at 22° C. Screws held the Y-tube in an inclined position (angle of […] between the Y-tube and the horizontal plane). The Y-tube was placed in the centre of an artificially lit box (60×60×60 cm), covered with sheets on the outside in order to avoid external stimuli. The tubes at the end of the Y were connected to two glass adaptors, to which 30 ml glass flasks were attached, each containing a 1 cm^2 piece of filter paper. […]
Individual female flies—from 8 to 30 days old—were released one by one into the first cm of the base tube of the olfactometer using a manual aspirator. […] The air suction tube was connected to the glass Y-tube and the time until the flies reached the end of one of the arms of the Y was recorded. […]
In order to evaluate the attractiveness of one molecule vis-à-vis Bactrocera oleae, the data collected were analyzed with a khi2 statistical test on Excel and R. The p value, obtained in this test, indicates the probability of obtaining the same value if the null hypothesis was true. […]

Structure (SMILES) | Behavioural response obtained using the substance tested (expressed in %) [%]
CCCCCCCCCC=O [Decanal, decanal] | 68.00
C=C1CC/C=C(\C)CC[C@@H]2[C@@H]1CC2(C)C [Beta-caryophyllene, beta-caryophyllene] | 70.00

From US12439914B2, “Bactrocera oleae attractant composition and uses thereof” (CEARITIS, priority 2020, dated 2025)
